Experimental data: the NIST ThermoML archive (doi:10.1016/j.fluid.2011.11.020)
Numbers after ± are expanded uncertainties.

Details: Liquid, Ebulliometric method (Recirculating still)

c1ccsc1 [thiophene]
Normal boiling temperature: 84.27 ± 0.2 °C

CCC(C)C [2-methylbutane]
Normal boiling temperature: 28.00 ± 0.2 °C

C=C(C)C(C)C [2,3-dimethyl-1-butene]
Normal boiling temperature: 55.73 ± 0.2 °C

CC(C)=C(C)C [2,3-dimethyl-2-butene]
Normal boiling temperature: 73.00 ± 0.21 °C

CCCCCCC [heptane]
vapor or sublimation pressure (370.27 K): 97.43 ± 0.14 kPa
vapor or sublimation pressure (370.74 K): 98.52 ± 0.15 kPa
vapor or sublimation pressure (370.93 K): 99.39 ± 0.17 kPa
vapor or sublimation pressure (371.13 K): 99.78 ± 0.16 kPa
vapor or sublimation pressure (371.52 K): 101.07 ± 0.17 kPa
vapor or sublimation pressure (372.25 K): 103.43 ± 0.11 kPa
vapor or sublimation pressure (372.36 K): 103.56 ± 0.17 kPa
vapor or sublimation pressure (372.56 K): 104.41 ± 0.15 kPa
vapor or sublimation pressure (372.76 K): 104.67 ± 0.17 kPa
vapor or sublimation pressure (372.97 K): 105.83 ± 0.19 kPa
vapor or sublimation pressure (373.17 K): 106.29 ± 0.14 kPa
vapor or sublimation pressure (373.48 K): 107.02 ± 0.14 kPa
Normal boiling temperature: 98.49 ± 0.2 °C
